# From ChEMBL document CHEMBL1201862, “PubChem BioAssay data set” (2004)
# Active and inactive are the calls of the source.
# What was measured:
# HEK293 = assay: inhibitors of LMP1-driven NF-kB reporter, dose response, cell-based, HEK293, luciferase, cherry-pick (AID 588343); assay type: functional; conditions: Homo sapiens
# [1] = molecular target: T1, Rac GTPase-activating protein 1 (Homo sapiens, UniProt Q9H0H5); assay: MgcRacGAP GTPase-activating activity inhibitors, confirmation, biochemical, ADP Hunter fluorescence, primary and confirmatory (AID 624330); assay type: functional
# T1 sequence (Q9H0H5 whole entry): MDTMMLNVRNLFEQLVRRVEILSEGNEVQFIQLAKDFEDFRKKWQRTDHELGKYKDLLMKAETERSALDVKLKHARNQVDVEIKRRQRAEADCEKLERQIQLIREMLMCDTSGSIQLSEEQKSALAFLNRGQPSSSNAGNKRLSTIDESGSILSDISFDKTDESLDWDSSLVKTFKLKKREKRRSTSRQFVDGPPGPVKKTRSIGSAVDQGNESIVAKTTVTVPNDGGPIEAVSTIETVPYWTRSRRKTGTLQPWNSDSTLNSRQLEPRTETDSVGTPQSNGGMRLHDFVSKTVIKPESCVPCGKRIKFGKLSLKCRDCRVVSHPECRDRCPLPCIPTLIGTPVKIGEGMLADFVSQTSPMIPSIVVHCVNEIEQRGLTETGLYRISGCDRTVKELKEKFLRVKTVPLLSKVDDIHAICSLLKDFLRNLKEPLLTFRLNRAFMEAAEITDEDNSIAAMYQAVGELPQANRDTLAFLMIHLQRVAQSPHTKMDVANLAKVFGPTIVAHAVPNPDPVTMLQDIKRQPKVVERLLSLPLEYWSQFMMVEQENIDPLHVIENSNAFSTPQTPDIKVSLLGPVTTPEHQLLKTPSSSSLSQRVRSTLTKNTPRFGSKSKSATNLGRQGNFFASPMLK
# HeLa = assay: HeLa cell cytotoxicity, dose response, cytotoxicity control for MITF activator project, CellTiter-Glo luminescence, cherry-pick samples (AID 540259); assay type: functional, cell-based; conditions: Homo sapiens
# Caspase-3 = molecular target: T2, Caspase-3 (Homo sapiens, UniProt P42574); assay type: functional;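 further: Dose-response selectivity test against caspase-3 for candidate inhibitors of sentrin-specific proteases (SENPs)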
# T2 sequence (P42574 whole entry): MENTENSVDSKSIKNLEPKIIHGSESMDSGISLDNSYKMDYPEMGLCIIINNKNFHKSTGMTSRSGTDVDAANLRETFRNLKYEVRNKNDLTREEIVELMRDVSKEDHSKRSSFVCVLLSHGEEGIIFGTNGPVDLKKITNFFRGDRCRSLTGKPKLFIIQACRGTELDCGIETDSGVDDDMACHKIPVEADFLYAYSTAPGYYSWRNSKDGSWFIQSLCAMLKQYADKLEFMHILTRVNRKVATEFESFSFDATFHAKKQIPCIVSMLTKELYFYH
# [2] = molecular target: T3, Sentrin-specific protease 7 (Homo sapiens, UniProt Q9BQF6); assay type: functional;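 further: Luminescence-based dose-response confirmation of ultra-high-throughput screening hits, measuring inhibition of SENP7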
# T3 sequence (Q9BQF6 whole entry): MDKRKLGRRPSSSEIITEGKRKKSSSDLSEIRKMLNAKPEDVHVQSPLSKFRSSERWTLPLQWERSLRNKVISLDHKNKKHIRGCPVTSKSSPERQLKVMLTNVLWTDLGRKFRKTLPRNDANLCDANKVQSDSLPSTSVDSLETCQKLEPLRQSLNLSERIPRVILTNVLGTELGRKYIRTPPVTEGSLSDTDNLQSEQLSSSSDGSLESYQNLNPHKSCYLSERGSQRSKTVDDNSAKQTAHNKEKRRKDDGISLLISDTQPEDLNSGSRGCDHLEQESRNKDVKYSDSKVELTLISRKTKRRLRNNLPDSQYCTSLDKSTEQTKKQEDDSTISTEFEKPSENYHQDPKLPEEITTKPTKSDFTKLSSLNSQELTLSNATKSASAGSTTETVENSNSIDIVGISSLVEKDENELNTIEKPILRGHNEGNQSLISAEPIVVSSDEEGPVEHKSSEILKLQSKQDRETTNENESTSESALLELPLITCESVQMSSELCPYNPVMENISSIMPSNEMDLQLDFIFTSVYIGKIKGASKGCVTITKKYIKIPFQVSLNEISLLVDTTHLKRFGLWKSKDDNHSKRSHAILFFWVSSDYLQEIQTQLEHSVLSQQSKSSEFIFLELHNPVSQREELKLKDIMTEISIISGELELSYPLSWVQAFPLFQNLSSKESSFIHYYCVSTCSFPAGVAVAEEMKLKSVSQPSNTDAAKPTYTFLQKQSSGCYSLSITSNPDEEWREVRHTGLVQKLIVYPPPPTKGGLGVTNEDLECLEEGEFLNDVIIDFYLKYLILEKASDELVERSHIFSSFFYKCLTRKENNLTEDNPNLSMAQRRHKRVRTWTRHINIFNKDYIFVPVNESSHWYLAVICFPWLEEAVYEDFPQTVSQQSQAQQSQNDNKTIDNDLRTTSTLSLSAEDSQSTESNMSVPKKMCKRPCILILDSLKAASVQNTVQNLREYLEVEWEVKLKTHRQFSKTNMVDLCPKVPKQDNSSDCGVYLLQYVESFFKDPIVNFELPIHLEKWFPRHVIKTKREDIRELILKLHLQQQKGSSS
# [3] = molecular target: T4, Sentrin-specific protease 8 (Homo sapiens, UniProt Q96LD8); assay type: functional;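 further: luminescence read-out of SENP8 inhibition, dose-response confirmation following an ultra-high-throughput screen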
# T4 sequence (Q96LD8 whole entry): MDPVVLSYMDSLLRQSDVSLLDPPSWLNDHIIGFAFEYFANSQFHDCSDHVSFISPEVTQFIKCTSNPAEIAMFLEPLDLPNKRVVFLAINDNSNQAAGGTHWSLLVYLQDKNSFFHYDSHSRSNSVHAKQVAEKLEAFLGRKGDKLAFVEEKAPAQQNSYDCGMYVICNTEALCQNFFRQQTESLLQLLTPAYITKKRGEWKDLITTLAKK
# [4] = molecular target: T5, Sentrin-specific protease 6 (Homo sapiens, UniProt Q9GZR1); assay type: functional;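 further: Luminescence-based dose-response confirmatory assay of SENP6 inhibition, following up an ultra-high-throughput screen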
# T5 sequence (Q9GZR1 whole entry): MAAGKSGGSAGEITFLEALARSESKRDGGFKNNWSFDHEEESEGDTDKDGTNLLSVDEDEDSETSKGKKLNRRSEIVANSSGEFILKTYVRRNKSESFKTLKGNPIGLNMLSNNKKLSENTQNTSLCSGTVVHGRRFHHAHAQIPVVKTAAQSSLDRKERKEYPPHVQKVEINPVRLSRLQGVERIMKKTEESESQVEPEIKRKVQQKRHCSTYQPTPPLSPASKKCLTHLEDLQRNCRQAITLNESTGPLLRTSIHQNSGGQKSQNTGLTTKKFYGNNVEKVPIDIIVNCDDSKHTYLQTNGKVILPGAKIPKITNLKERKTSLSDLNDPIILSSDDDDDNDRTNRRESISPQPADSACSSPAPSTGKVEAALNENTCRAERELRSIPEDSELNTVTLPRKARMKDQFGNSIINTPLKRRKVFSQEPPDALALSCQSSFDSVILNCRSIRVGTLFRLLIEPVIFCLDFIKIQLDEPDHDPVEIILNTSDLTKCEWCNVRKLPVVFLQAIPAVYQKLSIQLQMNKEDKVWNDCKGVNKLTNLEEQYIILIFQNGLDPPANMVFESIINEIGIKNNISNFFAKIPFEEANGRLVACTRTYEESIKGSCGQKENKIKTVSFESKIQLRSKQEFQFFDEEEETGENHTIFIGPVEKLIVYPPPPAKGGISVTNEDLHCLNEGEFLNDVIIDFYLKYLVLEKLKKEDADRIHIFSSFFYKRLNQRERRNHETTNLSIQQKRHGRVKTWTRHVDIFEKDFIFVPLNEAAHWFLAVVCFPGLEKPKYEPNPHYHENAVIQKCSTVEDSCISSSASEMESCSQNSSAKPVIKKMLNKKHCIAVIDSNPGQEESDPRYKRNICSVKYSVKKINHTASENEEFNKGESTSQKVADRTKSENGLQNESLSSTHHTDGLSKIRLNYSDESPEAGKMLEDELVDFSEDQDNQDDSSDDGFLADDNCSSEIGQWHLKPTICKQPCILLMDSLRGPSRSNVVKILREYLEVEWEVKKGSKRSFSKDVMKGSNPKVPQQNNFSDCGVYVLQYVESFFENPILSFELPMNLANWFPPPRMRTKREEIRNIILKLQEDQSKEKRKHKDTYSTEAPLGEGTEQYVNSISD
# [5] = cytotoxicity toward DRD oncogenic fibroblasts, dose response, cell-based, non-viral oncogenic, luminescence (AID 1934); assay type: functional; conditions: Homo sapiens
# BJ [6] = assay: cells; assay type: functional, cell-based; conditions: Homo sapiens
# [7] = C. albicans growth with fluconazole, confirmation, fluorescence, retest (AID 2467); assay type: functional, cell-based
# BJ [8] = assay: cytotoxicity toward Ras-transformed BJeLR fibroblasts, dose response, cell-based, alamar blue fluorescence, cherrypicked samples (AID 2631); assay type: functional; conditions: Homo sapiens;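 further: confirmatory dose-response assay in RAS-dependent BJ fibroblasts engineered with TERT, LT and ST, with cytotoxicity read by fluorescence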
# [9] = growth suppression of PTEN-null colon cells, dose response, cell-based, HCT116 PTEN knockout (AID 1047); assay type: functional;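 further: HCT116 colon tumor cells with PTEN knocked out; cells exposed to compound for 60 hours before readout; potency for loss of cell viability measured by luminescence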
# [10] = NIH-3T3 fibroblast cytotoxicity, dose response, cytotoxicity control, cell-based, fluorescence, Alamar Blue, secondary assay (AID 2327); assay type: functional;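 further: NIH-3T3 mouse fibroblasts cultured with fluconazole at 8 µg/mL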
# BJ [11] = assay: cytotoxicity toward BJ-TERT-LT-ST fibroblasts, dose response, cell-based, RAS-independent, luminescence (AID 1935); assay type: functional; conditions: Homo sapiens;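 further: BJ fibroblasts immortalized with TERT plus LT and ST oncogenes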
# [12] = growth suppression of beta-catenin-knockout colon cells, dose response, cell-based, HCT116, human colon tumor (AID 1045); assay type: functional;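 further: HCT116 colon tumor cells with beta catenin knocked out; cells exposed to compound for 60 hours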
# BJ [13] = assay: cytotoxicity toward BJ-TERT fibroblasts, dose response, cell-based, RAS-independent, luminescence (AID 1933); assay type: functional; conditions: Homo sapiens
structure (smiles),measurement,setting,value
COc1ccc(C=NNc2nc3ccccc3s2)cc1,AC50,HEK293,2.96 µM (active)
CCN(CC)c1ccc(Nc2nc(-c3cccnc3)cs2)cc1,IC50,[1],185 µM (active)
same,AC50,HeLa,77 µM (active)
same,IC50,Caspase-3,21.5 µM (active)
same,IC50,[2],4.32 µM (active)
same,IC50,[3],26.7 µM (active)
same,IC50,[4],16.9 µM (active)
O=c1c2ccccc2nc(/C=C/c2ccc([N+](=O)[O-])o2)n1CCCO,EC50,[5],5.06 µM (inconclusive)
same,EC50,BJ [6],7.21 µM (inconclusive)
same,EC50,[7],0.503 µM (active)
same,EC50,BJ [8],3.07 µM (active)
same,EC50,[9],< 0.059 µM (active)
same,EC50,[10],7.14 µM (inconclusive)
same,EC50,BJ [11],3.96 µM (active)
same,EC50,[12],< 0.059 µM (active)
same,EC50,BJ [13],6.12 µM (inconclusive)
